Results from PubChem BioAssay (NCI).
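Interpolation was linear, between the two tested concentrations surrounding the appropriate level; five concentrations were tested over 48 hours in 96-well plates. TGI: concentration producing complete growth inhibition.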 Where a SMILES comes first, the peptide text is derived from it. [ ]: non-standard residue; d: D form. The star is where a group is joined. ξ: configuration not given here. ξD = NC(CC(=O)O)C(=O)O; Ac3c = NC1(C(=O)O)CC1; Boc = CC(C)(C)OC(=O)*; OtBu = CC(C)(C)O*

Assays:
Assay in all cases: growth of human tumour cells (NCI), 48 h
[1] = system: HCT-15 colon
[2] = system: HOP-62 NSCLC
[3] = system: HOP-92 NSCLC
[4] = system: LOX IMVI melanoma
[5] = system: MALME-3M melanoma
[6] = system: NCI-H226 lung
[7] = system: SK-MEL-28 melanoma
[8] = system: T-47D breast
[9] = system: UACC-257 melanoma
[10] = system: SR leukemia

Row | Structure (SMILES) | TGI [1] | TGI [2] | TGI [3] | TGI [4] | TGI [5] | TGI [6] | TGI [7] | TGI [8] | TGI [9] | TGI [10]
1 | Cc1ccc(N=C2SC(c3ccc(C)cc3)(c3ccc(C)cc3)c3ccccc32)cc1 | > 100 µM | > 100 µM | > 100 µM | > 100 µM | > 100 µM | > 100 µM | > 100 µM | > 100 µM | > 100 µM | 
2 | N#CC1(c2ccccc2)CCN(C2(c3ccccc3)CCCCC2)CC1 | > 100 µM | > 100 µM |  | > 100 µM | > 100 µM | > 100 µM | > 100 µM | > 100 µM | > 100 µM | > 100 µM
3 | Cc1ccc(S(=O)(=O)c2ccc([N+](=O)[O-])o2)cc1 | 2.83 µM | 38.1 µM | 4.32 µM | 2.91 µM | 2.64 µM | 31.5 µM | 3.81 µM | 6.24 µM | 3.61 µM | 
4 | COc1cc2c(cc1C)NC(=O)/C2=C\c1ccncc1 | 16 µM | 22.8 µM | > 100 µM |  | 32.1 µM |  | 84.3 µM | 16.8 µM | 26.7 µM | 8.04 µM
5 | O=C1NC2CCCCC2N=C1/C(C(=O)c1ccccc1)=C(\O)c1ccccc1 (configuration not stated) | > 100 µM | > 100 µM |  | > 100 µM | > 100 µM | 46.8 µM | > 100 µM | > 100 µM | > 100 µM | 92.3 µM
6 | COc1ccc2c(c1OC)C(=O)O[C@@H]2[C@H]1c2cc3c(cc2CCN1C)OCO3 | > 100 µM | > 100 µM | > 100 µM | > 100 µM |  | > 100 µM |  | > 100 µM | > 100 µM | > 100 µM
7 | COC(=O)C1(NC(=O)C(CC(=O)OC(C)(C)C)NC(=O)OC(C)(C)C)CC1 (configuration not stated) (Boc-[ξD](OtBu)-[Ac3c]-OMe) | > 100 µM | > 100 µM |  | > 100 µM | > 100 µM | > 100 µM | > 100 µM | > 100 µM | > 100 µM | 
8 | CCN1CCCC(Nc2cc(C)nc(/N=C(/N)Nc3ccc(Cl)c(Cl)c3)n2)C1 (configuration not stated) | 3.7 µM | 2.88 µM | 3.33 µM |  | 4.02 µM |  | 3.34 µM |  |  | 2.88 µM
9 | O=C1CCC2(O)C3Cc4ccc(Oc5nnnn5-c5ccccc5)c5c4C2(CCN3CC2CC2)C1O5 (configuration not stated) | > 100 µM | > 100 µM | > 100 µM | 84.6 µM | 32.7 µM |  | 30.8 µM | > 100 µM | 45.7 µM | 42.9 µM
10 | CC(=O)Nc1ccc(C(=O)N2N=C(C)/C(=C/c3cccc([N+](=O)[O-])c3)C2=O)cc1 |  | > 100 µM |  | > 100 µM | > 100 µM | > 100 µM | > 100 µM |  | > 100 µM | > 100 µM
11 | CCC(=O)NC(OCC1(CC)COC1)(C(F)(F)F)C(F)(F)F | > 100 µM | > 100 µM |  | > 100 µM | > 100 µM | > 100 µM | > 100 µM | > 100 µM | > 100 µM | > 100 µM
12 | Oc1ccc(Cl)cc1C1=N/C(=N\C/N=C2\N=C(c3cc(Cl)ccc3O)CC(c3ccccc3)N2)NC(c2ccccc2)C1 (configuration not stated) | > 100 µM | > 100 µM | > 100 µM | > 100 µM |  | > 100 µM | > 100 µM |  | > 100 µM | > 100 µM
13 | COC(=O)/C=C/c1cc(OC)c2oc(-c3ccc(OC)c(OC)c3)c(C(=O)OC)c2c1 | > 100 µM |  | > 100 µM | > 100 µM | > 100 µM |  | > 100 µM | > 100 µM | > 100 µM | > 100 µM
14 | C/C=C/[C@H]1O[C@@](O)([C@@H](C)[C@H](O)[C@H](C)[C@H]2OC(=O)/C(OC)=C/C(C)=C/[C@@H](C)[C@@H](O)[C@@H](CC)[C@@H](O)[C@H](C)C/C(C)=C/C=C/[C@@H]2OC)C[C@H](OC2CC(O)C(OC(N)=O)C(C)O2)[C@@H]1C (some centres not stated) | 12.6 µM | 1.11 µM | 2.4 µM | 0.0614 µM | 0.73 µM |  | 20.4 µM | 2.12 µM | 0.568 µM | 
15 | CCCCc1ccc(-n2sc3ncccc3c2=O)cc1 | 19.9 µM | 36.2 µM |  | 43.6 µM | 14.9 µM | 64.2 µM | 33.1 µM | 45.7 µM | 43.7 µM | 60.4 µM
16 | CC(C)=Nn1cnc(C(=N)C#N)c1N | > 100 µM | > 100 µM |  |  | > 100 µM | > 100 µM | > 100 µM |  | > 100 µM | > 100 µM
17 | CN1Cc2c(nc(-c3ccc(Br)cc3)c[n+]2[O-])N(C)C1 |  | > 100 µM | > 100 µM |  | > 100 µM | > 100 µM | > 100 µM |  | > 100 µM | > 100 µM
18 | CCNc1ncnc2c1nnn2CC | > 100 µM | > 100 µM | > 100 µM | > 100 µM | > 100 µM | > 100 µM | > 100 µM | > 100 µM | > 100 µM | 
19 | N#CC12C(=O)N3C(=NC(c4ccccc4)NC3c3ccccc3)C1(C#N)C(c1ccccc1)NC1=C2CCCC1 (configuration not stated) | > 100 µM | > 100 µM | > 100 µM | > 100 µM | > 100 µM | > 100 µM | > 100 µM | > 100 µM | > 100 µM | 
20 | CC1=NN(C(=O)c2ccc(Cl)cc2)C(=O)/C1=C/c1ccc(Cl)cc1 |  | > 100 µM | > 100 µM | > 100 µM | > 100 µM |  | > 100 µM |  | > 100 µM | 
21 | Nc1ccc(C(=O)NN2C(=O)C(Cl)C2c2cccc(O)c2)cc1 (configuration not stated) | 25.3 µM | 30.7 µM | 35.4 µM | 16.2 µM | 36.7 µM | 41.4 µM | 31.9 µM |  | 41.7 µM | 
22 | C=C(Br)CNCC(=C)Br | > 100 µM | > 100 µM |  | > 100 µM | > 100 µM | > 100 µM | > 100 µM | > 100 µM | 98.6 µM | > 100 µM
23 | O=S1(=O)C(c2ccccc2)=C(O)c2ccccc21 | > 100 µM | > 100 µM | > 100 µM | > 100 µM | > 100 µM | > 100 µM | > 100 µM | > 100 µM | > 100 µM | 
24 | C[C@@H]1CC[C@@H](C)[C@](C)(CCc2ccoc2)C/C=C\C=C/1C(=O)O | > 50 µM | > 50 µM | > 50 µM | > 50 µM | > 50 µM | > 50 µM | > 50 µM |  | > 50 µM | > 50 µM
